Binding % data for 29 compounds are collected here from US10111874B2, “Combination therapies for treatment of cancer” (Araxes Pharma LLC, priority 2014, dated 2018).

T1 sequence (P01116 1-169 isoform P01116-2 G12C): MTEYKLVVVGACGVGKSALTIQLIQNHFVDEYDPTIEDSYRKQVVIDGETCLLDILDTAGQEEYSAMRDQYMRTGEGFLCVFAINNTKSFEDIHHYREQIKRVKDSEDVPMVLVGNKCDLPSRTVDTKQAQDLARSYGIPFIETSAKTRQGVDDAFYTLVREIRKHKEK

One test addresses T1, KRAS G12C 1-169, his-tagged protein, GDP-loaded (Homo sapiens, UniProt P01116, G12C).
T1 construct: KRAS G12C 1-169, his-tagged protein, GDP-loaded
In words: Biochemical assay: covalent binding to KRAS G12C analyzed by mass spectrometry. Note: test concentration or dose not given here. The note with it: compounds 1-47, measured at 24 h.
With `C=CC(=O)N1CC(N2CCN(C(=O)CNc3cc(Cl)c(Cl)cc3O)CC2)C1` [Example 38, 1-(3-(4-(2-(4,5-dichloro-2-hydroxyphenylamino)acetyl)piperazin-1-yl)azetidin-1-yl)prop-2-en-1-one], the Binding % result is “++ (++indicates binding activity greater than 25% and up to 50%)”.

`C=CC(=O)NC1CN(C2CN(C(=O)CNc3cc(Cl)c(Cl)cc3O)C2)C1` [Example 39, N-(1′-(2-(4,5-dichloro-2-hydroxyphenylamino)acetyl)-1,3′-biazetidin-3-yl)acrylamide]: the Binding % entry is reported as “+ (+indicates binding activity from 5% to 25%)”.

In the case of `C=CC(=O)N1CCC2(C1)CN(C(=O)CNc1cc(Cl)c(Cl)cc1O)C2` [Example 40, 1-(2-(2-(4,5-dichloro-2-hydroxyphenylamino)acetyl)-2,6-diazaspiro[3.4]octan-6-yl)prop-2-en-1-one], the Binding % entry is “+++ (+++indicates binding activity greater than 50% and up to 75%)”.

The same test, now with this note: compounds 48-246, measured at 2 h.
`C=CC(=O)N1CC(N2CCN(C(=O)OC(C)(C)C)CC2)C1` [Example 50, tert-butyl 4-(1-acryloylazetidin-3-yl)piperazine-1-carboxylate]: the Binding % entry is recorded as “+ (+indicates binding activity from 5% to 25%)”.

The same test, now with this note: compounds 247-342, measured at 30 min.
Turning to `C=CC(=O)N1CCN(c2ncnc3c(F)c(-c4ccc(F)cc4C(F)(F)F)c(Cl)cc23)CC1` [Compound I-275, 1-(4-(6-chloro-8-fluoro-7-(4-fluoro-2-(trifluoromethyl)phenyl)quinazolin-4-yl)piperazin-1-yl)prop-2-en-1-one], the Binding % entry is “++ (++indicates binding activity greater than 25% and up to 50%)”.

With `C=CC(=O)N1CCN(c2ncnc3cc(-c4cccc(-c5ccn[nH]5)c4)c(Cl)cc23)CC1` [Compound I-276, 1-(4-(7-(3-(1H-pyrazol-5-yl)phenyl)-6-chloroquinazolin-4-yl)piperazin-1-yl)prop-2-en-1-one], the Binding % entry is given as “+ (+indicates binding activity from 5% to 25%)”.

As to `C=CC(=O)N1CCN(c2ncnc3c(F)c(-c4c(F)ccc(F)c4O)c(Cl)cc23)CC1` [Compound I-277, 1-(4-(6-chloro-7-(3,6-ddifluoro-2-hydroxyphenyl)-8-fluoroquinazolin-4-yl)piperazin-1-yl)prop-2-en-1-one], the Binding % entry was “+ (+indicates binding activity from 5% to 25%)”.

In the case of `C=CC(=O)N1CCN(c2ncnc3c(F)c(-c4ccccc4C(C)(C)O)c(Cl)cc23)CC1` [Compound I-278, 1-(4-(6-chloro-8-fluoro-7-(2-(2-hydroxypropan-2-yl)phenyl)quinazolin-4-yl)piperazin-1-yl)prop-2-en-1-one], the Binding % entry is “++ (++indicates binding activity greater than 25% and up to 50%)”.

As to `C=CC(=O)N1CCN(c2cnnc3cc(-c4c(O)cccc4F)c(C(F)(F)F)cc23)CC1` [Compound I-279, 1-(4-(7-(2-fluoro-6-hydroxyphenyl)-6-(trifluoromethyl)cinnolin-4-yl)piperazin-1-yl)prop-2-en-1-one], the Binding % entry was “+++ (+++indicates binding activity greater than 50% and up to 75%)”.

Consider `C=CC(=O)N1CCN(c2ncnc3c(F)c(-c4c(O)cc(F)cc4F)c(Cl)cc23)CC1` [Compound I-280, 1-(4-(6-chloro-7-(2,4-difluoro-6-hydroxyphenyl)-8-fluoroquinazolin-4-yl)piperazin-1-yl)prop-2-en-1-one], for which the Binding % entry was “+++ (+++indicates binding activity greater than 50% and up to 75%)”.

`C=CC(=O)N1CCN(c2ncnc3c(F)c(-c4cc(-c5c[nH]cn5)ccc4F)c(Cl)cc23)CC1` [Compound I-281, 1-(4-(6-chloro-8-fluoro-7-(2-fluoro-5-(1H-imidazol-4-yl)phenyl)quinazolin-4-yl)piperazin-1-yl)prop-2-en-1-one]: the Binding % entry is “++ (++indicates binding activity greater than 25% and up to 50%)”.

Turning to `CC(C)/C=C(\C#N)C(=O)N1CCN(c2ncnc3c(F)c(-c4c(O)cccc4F)c(Cl)cc23)CC1` [Compound I-282, (E)-2-(4-(6-chloro-8-fluoro-7-(2-fluoro-6-hydroxyphenyl)quinazolin-4-yl)piperazine-1-carbonyl)-4-methylpent-2-enenitrile], the Binding % entry was “+++ (+++indicates binding activity greater than 50% and up to 75%)”.

With `N#C/C(=C\c1cncs1)C(=O)N1CCN(c2ncnc3c(F)c(-c4c(O)cccc4F)c(Cl)cc23)CC1` [Compound I-283, (E)-2-(4-(6-chloro-8-fluoro-7-(2-fluoro-6-hydroxyphenyl)quinazolin-4-yl)piperazine-1-carbonyl)-3-(thiazol-5-yl)acrylonitrile], the Binding % entry was “++ (++indicates binding activity greater than 25% and up to 50%)”.

On to `N#C/C(=C\c1ccccn1)C(=O)N1CCN(c2ncnc3c(F)c(-c4c(O)cccc4F)c(Cl)cc23)CC1` [Compound I-284, (E)-2-(4-(6-chloro-8-fluoro-7-(2-fluoro-6-hydroxyphenyl)quinazolin-4-yl)piperazine-1-carbonyl)-3-(pyridin-2-yl)acrylonitrile], for which the Binding % result is recorded as “++++ (++++indicates binding activity greater than 75%)”.

For the compound `C=CC(=O)N1CCN(c2c(C#N)cnc3c(F)c(-c4ccccc4C(F)(F)F)c(Cl)cc23)CC1` [Compound I-285, 4-(4-acryloylpiperazin-1-yl)-6-chloro-8-fluoro-7-(2-(trifluoromethyl)phenyl) quinoline-3-carbonitrile], the Binding % entry was “+++ (+++indicates binding activity greater than 50% and up to 75%)”.

`C=CC(=O)N1CCN(c2ncnc3c(Cl)c(-c4c(OC)ccc5ccccc45)c(Cl)cc23)CC1` [Compound I-286, 1-(4-(6,8-dichloro-7-(2-methoxynaphthalen-1-yl)quinazolin-4-yl)piperazin-1-yl)prop-2-en-1-one]: the Binding % result was “+ (+indicates binding activity from 5% to 25%)”.

Regarding `C=CC(=O)N1CCN(c2ncnc3c(F)c(-c4c(C)cccc4OC)c(Cl)cc23)CC1` [Compound I-287, 1-(4-(6-chloro-8-fluoro-7-(2-methoxy-6-methylphenyl)quinazolin-4-yl)piperazin-1-yl)prop-2-en-1-one], the Binding % result is “++ (++indicates binding activity greater than 25% and up to 50%)”.

With `C=CC(=O)N1CCN(c2ncnc3c(F)c(-c4c[nH]c5ccccc45)c(Cl)cc23)CC1` [Compound I-288, 1-(4-(6-chloro-8-fluoro-7-(1H-indol-3-yl)quinazolin-4-yl)piperazin-1-yl)prop-2-en-1-one], the Binding % entry is “++ (++indicates binding activity greater than 25% and up to 50%)”.

Turning to `C=CC(=O)N1CCN(c2ncnc3c(F)c(-c4c(O)cccc4Cl)c(Cl)cc23)CC1` [Compound I-289, 1-(4-(6-chloro-7-(2-chloro-6-hydroxyphenyl)-8-fluoroquinazolin-4-yl)piperazin-1-yl)prop-2-en-1-one], the Binding % entry is “+++ (+++indicates binding activity greater than 50% and up to 75%)”.

Consider `C=CC(=O)N1CCN(c2ncnc3c(F)c(-c4c(C)cccc4Cl)c(Cl)cc23)CC1` [Compound I-290, 1-(4-(6-chloro-7-(2-chloro-6-methylphenyl)-8-fluoroquinazolin-4-yl)piperazin-1-yl)prop-2-en-1-one], for which the Binding % result was “+++ (+++indicates binding activity greater than 50% and up to 75%)”.

For the compound `C=CC(=O)N1CCN(c2c(C#N)cnc3c(F)c(-c4cc(O)cc5ccccc45)c(Cl)cc23)CC1` [Compound I-291, 4-(4-acryloylpiperazin-1-yl)-6-chloro-8-fluoro-7-(3-hydroxynaphthalen-1-yl)quinoline-3-carbonitrile], the Binding % result was “++++ (++++indicates binding activity greater than 75%)”.

Take `C=CC(=O)N1CCN(c2ncnc3c(F)c(-c4ccc(F)cc4F)c(C)cc23)CC1` [Compound I-292, 1-(4-(7-(2,4-difluorophenyl)-8-fluoro-6-methylquinazolin-4-yl)piperazin-1-yl)prop-2-en-1-one]: the Binding % entry was “+ (+indicates binding activity from 5% to 25%)”.

For `C=CC(=O)N1CCN(c2c(C#N)cnc3c(F)c(-c4c(C)ccc5[nH]ncc45)c(Cl)cc23)CC1` [Compound I-293, 4-(4-acryloylpiperazin-1-yl)-6-chloro-8-fluoro-7-(5-methyl-1H-indazol-4-yl)quinoline-3-carbonitrile], the Binding % entry is reported as “++++ (++++indicates binding activity greater than 75%)”.

Regarding `C=CC(=O)N1CCN(c2ncnc3c(F)c(-c4c(C)ccc5[nH]ncc45)c(Cl)cc23)CC1CC#N` (centres unmarked) [Compound I-294], the Binding % result was “++++ (++++indicates binding activity greater than 75%)”.

`Cc1ccc2[nH]ncc2c1-c1c(Cl)cc2c(N3CCN(C(=O)/C=C/CN(C)C)CC3)ncnc2c1F` [Compound I-295, (E)-1-(4-(6-chloro-8-fluoro-7-(5-methyl-1H-indazol-4-yl)quinazolin-4-yl)piperazin-1-yl)-4-(dimethylamino)but-2-en-1-one]: the Binding % entry was “+ (+indicates binding activity from 5% to 25%)”.

Still in this test, the particulars now being: determined at 24 hrs.
Consider `C=CC(=O)N1CC(N2CCN(C(=O)CNc3cc(Cl)c(Cl)cc3O)CC2)C1` [II-1, 1-(3-(4-(2-(4,5-dichloro-2-hydroxyphenyl-amino)acetyl)-piperazin-1-yl)azetidin-1-yl)prop-2-en-1-one], for which the Binding % entry is on record as “++++ (++++indicates binding activity greater than 50%)”.

Regarding `C=CC(=O)N1CCC(N2CCN(C(=O)CNc3cc(Cl)c(Cl)cc3O)CC2)C1` (centres unmarked) [II-2, 1-(3-(4-(2-(4,5-dichloro-2-hydroxyphenyl-amino)acetyl)piperazin-1-yl)pyrrolidin-1-yl)prop-2-en-1-one], the Binding % entry was “+++ (+++indicates binding activity greater than 25% and up to 50%)”.

Regarding `C=CC(=O)NC1CN(C2CN(C(=O)CNc3cc(Cl)c(Cl)cc3O)C2)C1` [II-3, N-(1′-(2-(4,5-dichloro-2-hydroxyphenyl-amino)acetyl)-1,3′-biazetidin-3-yl)acrylamide], the Binding % entry is “++++ (++++indicates binding activity greater than 50%)”.

In the case of `C=CC(=O)N1CC(N2CCN(C(=O)CNc3cc(OC)c(Cl)cc3Cl)CC2)C1` [II-5, 1-(3-(4-(2-(2,4-dichloro-5-methoxyphenyl-amino)acetyl)-piperazin-1-yl)azetidin-1-yl)prop-2-en-1-one], the Binding % entry was “+ (+indicates binding activity from 5% to 15%)”.
